Biological target: human DHODH (Homo sapiens, UniProt Q02127)
Assay: Inhibition of human DHODH activity assay (DCIP chromogen reduction)
Format: biochemical
Conditions: enzyme extracts, 10 min at room temperature, absorbance at 600 nm, duplicate; read-out: hDHODH IC50
Description: DHODH activity and its inhibition were studied using a chromogen reduction assay with DCIP (2,6-dichlorophenol-indophenol).
Enzyme extracts (8 μl, ˜1.5 μg of human protein) were incubated in 96-well plates. The assay mixture (200 μl) contained 200 μM CoQD, 100 μM L-DHO, 120 μM DCIP in the assay buffer (100 mM HEPES pH 8.0, 150 mM NaCl, 10% Glicerol, 0.05% Triton X-100) and 2 μl of test compound. The compounds were dissolved in DMSO at a stock concentration of 1 mM, and tested at different concentrations varying from 10 μM to 1 pM to calculate an IC50 (concentration of inhibitor required for 50% of inhibition).
The reaction was initiated by adding the enzyme and then incubated for 10 min at room temperature before measuring DCIP reduction by counting a decrease in absorbance at 600 nm using standard instrumentation (Spectramax).
All reactions were carried out in duplicate and graphs, determining IC50 values for each compound, were plotted using the ABase software.

Chain of human DHODH (Q02127 whole entry): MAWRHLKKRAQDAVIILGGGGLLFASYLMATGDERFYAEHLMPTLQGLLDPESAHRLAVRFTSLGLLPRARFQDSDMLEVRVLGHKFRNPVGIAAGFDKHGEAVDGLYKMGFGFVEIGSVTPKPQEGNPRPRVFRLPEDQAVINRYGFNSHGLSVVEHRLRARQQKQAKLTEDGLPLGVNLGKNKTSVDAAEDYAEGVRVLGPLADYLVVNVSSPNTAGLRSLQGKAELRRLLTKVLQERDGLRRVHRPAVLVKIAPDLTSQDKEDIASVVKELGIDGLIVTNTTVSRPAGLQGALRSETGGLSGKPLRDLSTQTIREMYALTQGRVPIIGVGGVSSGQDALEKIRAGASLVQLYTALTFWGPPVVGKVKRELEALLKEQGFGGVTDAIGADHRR

| SMILES | IC50 [nM] |
| --- | --- |
| O=C(O)c1cc(C2CC2)ccc1Nc1cnc(-c2ccccc2)nc1 [Compound 1, 5-cyclopropyl-2-(2-phenylpyrimidin-5-ylamino)benzoic acid] | 105 |
| Cc1ccc(Nc2ccc(-c3cccc(C(F)(F)F)c3)nc2)c(C(=O)O)c1 [Compound 4, 5-Methyl-2-(6-(3-(trifluoromethyl)phenyl)pyridin-3-ylamino)benzoic acid] | 98 |
| O=C(O)c1cc(C2CC2)ccc1Nc1cnc(-c2c(F)cc(O)cc2F)nc1 [Compound 6, 5-cyclopropyl-2-(2-(2,6-difluoro-4-hydroxyphenyl)pyrimidin-5-ylamino)benzoic acid] | 57 |
| COc1ncc(Nc2ccc(C3CC3)cc2C(=O)O)cc1-c1ccccc1 [Compound 7, 5-Cyclopropyl-2-(6-methoxy-5-phenylpyridin-3-ylamino)benzoic acid] | 49 |
| Cc1ccc(Nc2cnc(-c3ccccc3)c(F)c2)c(C(=O)O)c1 [Compound 8, 2-(5-Fluoro-6-phenylpyridin-3-ylamino)-5-methylbenzoic acid] | 18 |
| O=C(O)c1cc(C2CC2)ccc1Nc1cnc(-c2ccccc2C2CC2)nc1 [Compound 14, 5-Cyclopropyl-2-(2-(2-cyclopropylphenyl)pyrimidin-5-ylamino)benzoic acid] | 57 |
| O=C(O)c1cc(C2CC2)ccc1Nc1cncc(-c2ccccc2)c1 [Compound 15, 5-cyclopropyl-2-(5-phenylpyridin-3-ylamino)benzoic acid] | 113 |
| Cc1ccc(Nc2cc(Cl)cnc2-c2ccccc2)c(C(=O)O)c1 [Compound 18, 2-(5-Chloro-2-phenylpyridin-3-ylamino)-5-methylbenzoic acid] | 62 |
| O=C(O)c1cc(C2CC2)ccc1Nc1cnc(-c2ccccc2)c(-c2ccccc2)c1 [Compound 19, 5-Cyclopropyl-2-(5,6-diphenylpyridin-3-ylamino)benzoic acid] | 10 |
| O=C(O)c1cc(C2CC2)ccc1Nc1cnc(-c2cccc(OC3CC3)c2)nc1 [Compound 22, 2-(2-(3-Cyclopropoxyphenyl)pyrimidin-5-ylamino)-5-cyclopropylbenzoic acid] | 114 |
| O=C(O)c1cc(C2CC2)ccc1Nc1cnc(C2CC2)c(-c2ccccc2)c1 [Compound 25, 5-cyclopropyl-2-(6-cyclopropyl-5-phenylpyridin-3-ylamino)benzoic acid] | 28 |
| Cc1ccc(Nc2cnc(N3CCCCC3)c(C)c2)c(C(=O)O)c1 [Compound 30, 5-Methyl-2-(5-methyl-6-(piperidin-1-yl)pyridin-3-ylamino)benzoic acid] | 41 |
| Cc1ccc(Nc2cnc(N3CCCCCC3)c(C)c2)c(C(=O)O)c1 [Compound 31, 2-(6-(Azepan-1-yl)-5-methylpyridin-3-ylamino)-5-methylbenzoic acid] | 119 |
| Cc1ccc(Nc2ccc(-c3ccncc3Cl)nc2)c(C(=O)O)c1 [Compound 34, 2-(3′-chloro-2,4′-bipyridin-5-ylamino)-5-methylbenzoic acid] | 109 |
| CCOc1cccc(-c2ccc(Nc3ccc(C)cc3C(=O)O)cn2)c1 [Compound 41, 2-(6-(3-Ethoxyphenyl)pyridin-3-ylamino)-5-methylbenzoic acid] | 190 |
| CCOc1cccc(-c2ncc(Nc3ccc(C)cc3C(=O)O)cc2C)c1 [Compound 42, 2-(6-(3-Ethoxyphenyl)-5-methylpyridin-3-ylamino)-5-methylbenzoic acid] | 30 |
| CCOc1cccc(-c2cc(C)c(Nc3ccc(C)cc3C(=O)O)cn2)c1 [Compound 44, 2-(6-(3-Ethoxyphenyl)-4-methylpyridin-3-ylamino)-5-methylbenzoic acid] | 78 |

| SMILES | IC50 [nM] |
| --- | --- |
| COc1cccc(-c2ncc(Nc3ccc(C(F)(F)F)cc3C(=O)O)cc2C)c1 [Compound 50, 2-(6-(3-Methoxyphenyl)-5-methylpyridin-3-ylamino)-5-(trifluoromethyl)benzoic acid] | 138 |
| COc1cccc(-c2ncc(Nc3ccc(C)cc3C(=O)O)cc2C)c1 [Compound 51, 2-(6-(3-Methoxyphenyl)-5-methylpyridin-3-ylamino)-5-methylbenzoic acid] | 21 |
| CCOc1ccc(F)c(-c2ccc(Nc3ccc(C)cc3C(=O)O)cn2)c1 [Compound 54, 2-(6-(5-Ethoxy-2-fluorophenyl)pyridin-3-ylamino)-5-methylbenzoic acid] | 19 |
| Cc1ccc(Nc2ccc(-c3ccccc3F)nc2)c(C(=O)O)c1 [Compound 57, 2-(6-(2-Fluorophenyl)pyridin-3-ylamino)-5-methylbenzoic acid] | 91 |
| Cc1ccc(Nc2ccc(-c3cc(OC(C)C)ccc3F)nc2)c(C(=O)O)c1 [Compound 66, 2-(6-(2-Fluoro-5-isopropoxyphenyl)pyridin-3-ylamino)-5-methylbenzoic acid] | 28 |
| Cc1ccc(Nc2cnc(-c3cccc(OC(C)C)c3)c(C)c2)c(C(=O)O)c1 [Compound 67, 2-(6-(3-Isopropoxyphenyl)-5-methylpyridin-3-ylamino)-5-methylbenzoic acid] | 11 |
| Cc1ccc(Nc2cnc(-c3cccc(C(N)=O)c3)c(C)c2)c(C(=O)O)c1 [Compound 73, 2-(6-(3-Carbamoylphenyl)-5-methylpyridin-3-ylamino)-5-methylbenzoic acid] | 190 |
| COc1ccc(F)c(-c2cc(C)c(Nc3ccc(C)cc3C(=O)O)cn2)c1 [Compound 75, 2-(6-(2-Fluoro-5-methoxyphenyl)-4-methylpyridin-3-ylamino)-5-methylbenzoic acid] | 97 |
| COc1cccc(-c2ncc(Nc3ccc(C)cc3C(=O)O)cc2C(F)(F)F)c1 [Compound 77, 2-(6-(3-Methoxyphenyl)-5-(trifluoromethyl)pyridin-3-ylamino)-5-methylbenzoic acid] | 12 |
| Cc1ccc(Nc2cnc(-c3cccc(C(=O)N(C)C)c3)c(C)c2)c(C(=O)O)c1 [Compound 79, 2-(6-(3-(Dimethylcarbamoyl)phenyl)-5-methylpyridin-3-ylamino)-5-methylbenzoic acid] | 33 |
| Cc1cc(Nc2ccc(C3CC3)cc2C(=O)O)cnc1-c1cccc(OC(F)(F)F)c1 [Compound 89, 5-Cyclopropyl-2-(5-methyl-6-(3-(trifluoromethoxy)phenyl)pyridin-3-ylamino)benzoic acid] | 5 |
| Cc1cc(Nc2ccc(C3CC3)cc2C(=O)O)cnc1-c1ccccc1 [Compound 91, 5-Cyclopropyl-2-(5-methyl-6-phenylpyridin-3-ylamino)benzoic acid] | 6 |
| Cc1ccc(Nc2cnc(-c3ccccc3C(F)(F)F)c(C)c2)c(C(=O)O)c1 [Compound 93, 5-Methyl-2-(5-methyl-6-(2-(trifluoromethyl)phenyl)pyridin-3-ylamino)benzoic acid] | 20 |
| Cc1ccc(Nc2cnc(-c3cccc(Cl)c3)c(C)c2)c(C(=O)O)c1 [Compound 95, 2-(6-(3-Chlorophenyl)-5-methylpyridin-3-ylamino)-5-methylbenzoic acid] | 10 |
| Cc1ccc(Nc2cnc(-c3ccncc3F)c(C)c2)c(C(=O)O)c1 [Compound 101, 2-(3′-Fluoro-3-methyl-2,4′-bipyridin-5-ylamino)-5-methylbenzoic acid] | 37 |
| O=C(O)c1cc(C2CC2)ccc1Nc1cnc(-c2ccccc2)c(C(F)(F)F)c1 [Compound 105, 5-Cyclopropyl-2-(6-phenyl-5-(trifluoromethyl)pyridin-3-ylamino)benzoic acid] | 2 |
